Assay results published in patent publication US8716437B2 (priority 2007, dated 2014).

Experiments:
[1] = system: antiserum to sarafotoxin s6b (anti-S6b); assay: Phage panning on immobilized antiserum to sarafotoxin s6b; assay type: binding; details: mixture of five ligands, one round of panning
Source text: A mixture of five ligands: (1) kaliotoxin-1; (2) sarafotoxin s6b; (3) Dendroaspis natriuretic peptide (DNP); (4) fasciculin-2; and (5) camel antibody (CVHH); were mixed and panned on purified receptors (KcsA-Kv1.3). The control was immobilized antiserum to sarafotoxin s6b (anti-S6b). Input and output ligands were verified by genotyping. In this system, shown in Table 6, a 3.6-fold enrichment is seen after one-round of panning.

[2] = molecular target: T1, BK (Mus musculus, UniProt Q08460); assay: Two electrode voltage clamp, Xenopus oocytes, BK; assay type: cell-based
T1 construct: expressed in transfected cells; host or cells: Xenopus laevis oocytes (cRNA injection)
T1 sequence (Q08460 whole entry): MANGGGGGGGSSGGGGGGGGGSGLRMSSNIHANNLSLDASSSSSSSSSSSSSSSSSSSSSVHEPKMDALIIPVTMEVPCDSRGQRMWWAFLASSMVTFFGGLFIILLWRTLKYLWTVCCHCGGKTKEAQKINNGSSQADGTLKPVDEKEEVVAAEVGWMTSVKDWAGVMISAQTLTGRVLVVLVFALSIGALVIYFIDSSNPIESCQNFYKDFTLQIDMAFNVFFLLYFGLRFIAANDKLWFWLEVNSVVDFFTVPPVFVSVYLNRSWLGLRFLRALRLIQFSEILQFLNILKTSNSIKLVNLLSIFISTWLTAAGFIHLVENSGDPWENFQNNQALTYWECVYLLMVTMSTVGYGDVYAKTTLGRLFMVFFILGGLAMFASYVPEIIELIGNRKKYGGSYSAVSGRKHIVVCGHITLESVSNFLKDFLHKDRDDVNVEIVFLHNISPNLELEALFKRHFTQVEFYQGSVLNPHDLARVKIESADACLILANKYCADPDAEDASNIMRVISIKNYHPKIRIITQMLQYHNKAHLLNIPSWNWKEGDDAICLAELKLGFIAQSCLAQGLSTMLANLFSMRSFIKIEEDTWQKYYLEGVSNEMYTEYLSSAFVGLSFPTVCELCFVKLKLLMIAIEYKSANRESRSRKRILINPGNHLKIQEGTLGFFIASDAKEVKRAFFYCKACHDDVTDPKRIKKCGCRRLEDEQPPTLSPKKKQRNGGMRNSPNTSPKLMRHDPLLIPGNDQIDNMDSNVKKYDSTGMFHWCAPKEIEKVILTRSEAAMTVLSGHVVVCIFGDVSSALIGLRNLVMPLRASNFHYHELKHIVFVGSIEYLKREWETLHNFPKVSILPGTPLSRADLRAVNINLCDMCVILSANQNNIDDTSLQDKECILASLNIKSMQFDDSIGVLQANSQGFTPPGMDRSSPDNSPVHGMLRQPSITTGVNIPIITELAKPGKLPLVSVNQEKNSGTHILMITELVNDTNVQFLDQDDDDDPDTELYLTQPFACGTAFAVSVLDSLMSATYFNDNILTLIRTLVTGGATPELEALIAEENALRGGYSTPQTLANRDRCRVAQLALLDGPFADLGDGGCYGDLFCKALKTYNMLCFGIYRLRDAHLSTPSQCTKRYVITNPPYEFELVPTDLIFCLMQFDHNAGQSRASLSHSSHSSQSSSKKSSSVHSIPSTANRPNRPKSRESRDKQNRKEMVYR
Procedure: To examine the effect of mokatoxin-1 on activity of potassium ion channels, cDNA encoding Rattus Kv1.1 (NCBI accession number NM_173095), Rattus Kv1.2 (NM_012970), Homo Kv1.3 (NM_002232), or Mus BK (NM_010610) were subcloned into oocyte expression vectors based on PCR3.1 and pGEM. cRNA synthesis was performed with T7 polymerase and the mMessageMachine Kit (Ambion, Austin, Tex.) according to manufacturers instructions. cRNA concentrations were determined spectroscopically. For two electrode voltage clamp recordings oocytes were extracted from Xenopus laevis and defoliculated with Collagenase Type 2 (Worthington, Lakewood, N.J.). Oocytes were maintained in ND91 solution containing 2 mM KCl, 91 mM NaCl, 1 mM MgCl2, 1.8 mM CaCl2, and 5 mM HEPES, pH 7.5, supplemented with 1% Penicillin/Streptomycin (Cellgro, Hemdon, Va.) and 0.1% Gentamycin sulfate (Gibco, Grand Island, N.Y.)) at 16° C. Stage V and VI oocytes were injected with 8 pg to 4 ng cRNA, and currents recorded 1 to 4 days later.
For dose-response measurements of toxin block of Kv1.1, Kv1,2, or Kv1.3 peak currents were recorded during a 500 ms step to 0 mV from a holding voltage of −100 mV, followed by a 200 ms step to −135 mV every 30 s. To determine the kinetics of toxin block oocytes were held at −100 mV and stepped to the test voltage of 0 mV for 100 ms followed by a 200 ms duration step to −135 mV every 2 s. BK currents were recorded during a 50 ms step to +60 mV from a holding voltage of −80 mV, followed by a 40 ms step to −100 mV every 3 s. The perfusion solution contained 2 mM KCl, 96 mM NaCl, 1 mM MgCl2, 1.8 mM CaCl2, 5 mM HEPES, pH 7.5 and 0.1% fatty acid ultra-free BSA fraction V (Roche Diagnostics Corporation, Indianapolis, Ind.). Data acquisition and processing was performed with an oocyte clamp OC-725B (Warner Instruments Corporation, Hamden, Conn.), pCLAMP (Axon, Sunnyvale, Calif.), IGOR Pro (WaveMetrics, Lake Oswego, Oreg.), and Origin6.1 (OriginLab Corporation, Northampton, Mass.) softwares. The equilibrium dissociation rates (KD) for block of Kv1.1, Kv1.2, and Kv1.3 by mokatoxin-1 were determined by fitting the dose-response data and kon and koff were calculated as described by Goldstein and Miller, 1993 (Biophys J. 1993 65 (4):1613-1619).

[3] = molecular target: Kv1.3 (Homo sapiens, UniProt P22001); assay: Phage panning on live cells (HEK, COS) expressing Kv1.3 channels; assay type: binding; set-up: expressed in transfected cells; host or cells: HEK (HEK293) and COS cells; details: for enrichment of KTX, Kv1.3 transfected vs. vector cells: 5×10^11 phagemids; for OUTPUT KTX (%): mixture of KTX and nonspecific phages, one round of panning
Sequence of Kv1.3 (P22001 whole entry): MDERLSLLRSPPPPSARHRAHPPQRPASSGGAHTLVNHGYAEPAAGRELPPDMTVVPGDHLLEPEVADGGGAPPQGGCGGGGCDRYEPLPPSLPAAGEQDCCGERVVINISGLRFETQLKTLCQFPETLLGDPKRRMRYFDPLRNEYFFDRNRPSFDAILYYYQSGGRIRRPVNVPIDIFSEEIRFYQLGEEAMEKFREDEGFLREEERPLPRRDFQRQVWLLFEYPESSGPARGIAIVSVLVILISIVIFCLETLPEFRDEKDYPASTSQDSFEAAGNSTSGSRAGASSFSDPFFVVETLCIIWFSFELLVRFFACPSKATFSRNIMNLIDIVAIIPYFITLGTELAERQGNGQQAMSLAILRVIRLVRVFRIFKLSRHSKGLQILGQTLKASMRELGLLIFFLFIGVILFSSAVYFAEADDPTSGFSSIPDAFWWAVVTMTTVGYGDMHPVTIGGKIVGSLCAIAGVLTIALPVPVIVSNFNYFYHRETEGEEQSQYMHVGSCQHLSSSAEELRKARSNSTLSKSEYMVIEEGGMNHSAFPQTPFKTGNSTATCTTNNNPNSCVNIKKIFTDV
Source text: In another example, receptors may be expressed in cells. For example, cells may be stably or transiently transfected with one or more receptors can be utilized as expressed in native tissues (Clackson and Lowman, Phage display. Oxford University Press, 2004; Barbas et al., Phage display. A laboratory manual. Cold Spring Harbor Laboratory Press, 2001; Sambrook et al., Molecular Cloning: A Laboratory Manual. Vols 1-3. Cold Spring Harbor Laboratory Press, 1989). In one example, HEK (mammalian human embryonic kidney) and COS cells expressing wild-type Kv1.3 or Kv1.3-PDZ domain chimera were employed, the latter target allowing a “double” panning (e.g., as a control or to enhance binding affinity) using phages expressing kaliotoxin-1 and/or PDZ-binder domain.
Panning may be performed by the binding of ligands to the receptors, followed by washes and ligand recovery. In one example, panning is performed according to standard methods of phage display (Clackson and Lowman, Phage display. Oxford University Press, 2004; Barbas et al., Phage display. A laboratory manual. Cold Spring Harbor Laboratory Press, 2001). Panning may be repeated until the desired enrichment is achieved. In addition, libraries can be pre-depleted on surfaces or cells that contain no receptors or on a receptor where the putative ligand receptor domain may be directly or indirectly altered. Additionally, any and all conditions of panning may be varied, altered or changed to achieve optimal results, such as the isolation of a specific ligand. Panning variations include, but are not limited to, the presence of competing ligand(s), presence of excess target(s), length and temperature of binding, pre-absorption of the ligand library on one or more different receptor(s) or cells or surfaces, composition of binding solution (e.g., ionic strength), stringency of washing, and recovery procedures. Phages recovered from panning may be processed for further rounds of panning, functional analysis, and/or sequencing/genotyping to deduce the resulting ligands' amino acid sequence or biological properties (Clackson and Lowman, Phage display. Oxford University Press, 2004; Barbas et al., Phage display. A laboratory manual. Cold Spring Harbor Laboratory Press, 2001).
5×10^11 phagemids were added to the cell cultures in “B.”
A library of KTX-like ligands, with a calculated diversity of greater than 11,000, was created de novo. The library comprised approximately 8% KTX-like ligands and 92% non-KTX-like ligands. The library of ligands was screened on Kv1.3 receptors expressed in HEK and COS cells.
Transfection efficiency was monitored with cotransfection of gene encoding for the green fluorescence protein (GFP) and observing the fluorescence after 1-2 days following transfection.
KTX and mokatoxin-1 are Kv1.3 specific scorpion toxins. […] Following incubation of the cells with the phages, cells were subjected to wash to remove the unbound/weakly bound phages. The remaining bound phages were eluted from the cells and transformed into XL1 E. coli, and plated onto LB plates with antibiotic selecting for the phagemids.

[4] = HEK cells, kaliotoxin-1-phage 1 out of 10^10 phage

Compound: CC[C@H](C)[C@H](NC(=O)[C@H](CCC(=O)O)NC(=O)[C@@H](NC(=O)CN)C(C)C)C(=O)N[C@@H](CC(N)=O)C(=O)N[C@H](C(=O)N[C@@H](CCCCN)C(=O)N[C@H]1CSSC[C@@H]2NC(=O)[C@H](CCCCN)NC(=O)CNC(=O)[C@H](Cc3ccccc3)NC(=O)[C@H](CCCNC(=N)N)NC(=O)[C@H](CCSC)NC(=O)CNC(=O)[C@H](C)NC(=O)[C@H](CC(=O)O)NC(=O)[C@H](CCCCN)NC(=O)[C@@H]3CSSC[C@@H](C(=O)N[C@H](C(=O)N4CCC[C@H]4C(=O)N[C@@H](CCCCN)C(=O)O)[C@@H](C)O)NC(=O)[C@H](Cc4c[nH]cn4)NC(=O)[C@H](CSSC[C@H](NC(=O)[C@H](CCC(N)=O)NC(=O)[C@@H]4CCCN4C(=O)[C@H](CO)NC(=O)CNC(=O)[C@H](CO)NC1=O)C(=O)N[C@@H](CC(C)C)C(=O)N[C@@H](CCCCN)C(=O)N1CCC[C@H]1C(=O)N3)NC(=O)[C@H](CCCCN)NC(=O)[C@H](CCCNC(=N)N)NC(=O)[C@H](CC(N)=O)NC(=O)[C@H](CCSC)NC2=O)C(C)C [KTX, kaliotoxin-1]
- Output (% Ligands) Anti-S6b (n = 20) [1]: 0%
- IC50 [2]: ~5 nM
- Koff [s]^−1 ([2]; mBK): 0.0211 ± 0.0008 [s]^−1
- Kon [M · s]^−1 ([2]; mBK): 21 · 10^3 ± 4 · 10^3 [M · s]^−1
- enrichment of KTX, Kv1.3 transfected vs. vector cells ([3]; COS cells): ~10 fold
- enrichment of KTX, Kv1.3 transfected vs. vector cells ([3]; HEK cells): ~20 fold
- 2nd round (n = 20) % [3, 4]: 0%
- 3rd round (n = 12) % [3, 4]: 58%
- OUTPUT KTX (%) ([3]; input ratio 1/99, actual 5/95 (n = 20)): 26 (n = 20) %
- OUTPUT KTX (%) ([3]; input ratio 10/90, actual 0/100 (n = 10)): 22 (n = 18) %
- OUTPUT KTX (%) ([3]; input ratio 10/90, actual 7/93 (n = 30)): 30 (n = 30) %
